According to patent publication EP0359256A2, “The use of inositoltrisphosphate in the treatment of tissue damage” (PERSTORP AB, priority 1988, dated 1990):

Key:
Type in all cases: in vivo
[1] = system: mice; assay: Toxicity after intraperitoneal injection of very high doses; conditions: 160 mg/kg body weight by intraperitoneal injection
[2] = system: shaved dorsal skin of rabbits; assay: Local oedema formation in rabbit dorsal skin in response to mediators of increased microvascular permeability, Evans Blue; conditions: 50 mg/kg directly after injection of the mediators
Experimental: Local oedema formation is measured in the shaved dorsal skin of rabbits in response to mediators of increased microvascular permeability, such as histamine, bradykinin and platelet activating factor (PAF). When a vasodilator such as calcitonin gene-related peptide (CGRP) is administered together with the mediators the blood flow is increased and this system is established for testing compounds that reduces oedema formation.
Prior to injection of the different mediators Evans Blue is injected into the anaesthetized animals. The distribution of Evans Blue is a measurement of the tissue damage and oedema formation. Directly after injection of the mediators either saline (control) or 50 mg/kg of D-myo-inositol-1.2.6-trisphos phate (IP₃) are performed.
The results are shown below as per cent inhibition of IP₃ compared to control.

[3] = system: skin of the abdomen; assay: Controlled burn damage in rats, albumin leakage measured with Evans Blue; conditions: n=10, 10 mg/kg injection 15 minutes after the burn, then infusion of 0.2 mg/min for 2 hours
Experimental: A controlled burn damage is induced in rats as a heat probe is applied to the skin of the abdomen with a constant pressure. The probe has a surface temperature of […] and is allowed to deliver a specific amount of energy until the temperature is lowered to 37°C. 15 minutes after the induction of the burn an injection of saline (control) or D-myo-inositol-1.2.6-trisphosphate (IP₃) was performed. After this first injection (10 mg/kg IP₃) an infusion of 0.2 mg/min IP₃ followed for 2 hours. 90 minutes after the damage Evans Blue is injected to the animals. This compound binds to albumin, which leaks into the damaged tissue. The amount of albumin leakage is then easily determined by measuring the intensity of colour of Evans Blue in different parts of the tissue. After another 30 minutes the animals are killed and the tissue damage is determined. […] Thus IP₃ is an protective substance against tissue damage caused by burns.

[4] = system: rat hind-paw; assay: Carrageenan-induced oedema of the rat hind-paw; conditions: male rats, 1000 mg/kg injected 2 hours and 1 hour before carrageenan; four hours after induction of the damage
Experimental: Injection of carrageenan into the subplanar surface of the rat hind-paw induces a tissue damage that results in pronounced oedema. The degree of oedema can be reproducibly quantified by measuring paw circumference.
Two groups of five male rats were injected 2 hours and 1 hour before injection of carrageenan with 1000 mg/kg D-myo-inositol-1.2.6-trisphosphate (IP₃) or Krebs ringer solution (control) respectively.
Measurement of the paw diameter was made at hourly intervals.

[5] = system: hamster cheek pouch; assay: Vascular permeability and bleeding induced by histamine in the hamster cheek pouch; conditions: 80 min period
Experimental: Vascular permeability and bleeding induced by histamine in the hamster cheek pouch was determined in the presence of D-myo-inositol-1.2.6-trisphosphate (IP₃) compared to control. Male hamsters were fasted overnight and anaesthetised with sodium pentobarbitone. Infusion was performed through the jugular vein. Injection of histamine (2.7 mg/kg) was preceded by either saline (control) or IP₃ (5.0 mg/kg).

For `O=P(O)(O)OC1[C@H](OP(=O)(O)O)[C@H](O)C(O)[C@H](O)[C@H]1OP(=O)(O)O` (stereo partly drawn) [IP₃, D-myo-inositol-1.2.6-trisphosphate], the toxic effects [1] was “no toxic effects”, the “% inhibition with IP₃ compared to control” value (from here on “% inhibition with IP₃”) ([2]; mediator Bradykinin) was 64% and the “% inhibition with IP₃” value ([2]; mediator Histamine) was 61%. For the same compound, the “% inhibition with IP₃” value ([2]; mediator PAF) was 64%, the “burn damage compared to control” value [3] was “significantly reduced” and the “reduces the oedema as compared to control” value [4] was 40%. For the same compound, the “% inhibition” value ([5]; inhibition of petechiae versus saline control, histamine 2.7 mg/kg, IP₃ 5.0 mg/kg) was 88% and the number of petechiae ([5]; male hamsters, histamine 2.7 mg/kg preceded by IP₃ 5.0 mg/kg, infusion through jugular vein) was 1.0.
